The text below walks through data of publication PMC7217877, “N-AS-triggered SPMs are direct regulators of microglia in a model of Alzheimer’s disease” (Nature Communications, 2020).

Where “and” joins values, the source holds several entries; their conditions need not be identical. Equal entries are not always repeated. Where two headings read alike, the source gives them in different places.

One data set deals with 5×FAD mice. Nature of the data set: western blot of synaptophysin, MAP2, synapsin1, PSD95 (Supplementary Fig 8f-i). Also noted: synaptophysin (western blot) / MAP2 (western blot) / synapsin1 (western blot): scale not given here. The data set is classed as in vivo, mouse. As for the experimental part:
Samples were lysed in RIPA buffer (Cell signaling Technologies), then subjected to SDS-PAGE and transferred to a nitrocellulose membrane. Membranes were blocked with 5% milk, incubated with primary antibody and then incubated with the appropriate horseradish peroxidase-conjugated secondary antibody. […] We performed densitometric quantification using the ImageJ software (National Institutes of Health). Images have been cropped for presentation.
Transgenic mouse lines over-expressing the hAPP695swe (APP) and presenilin-1M146V (PS1) mutations were originated from GlaxoSmithKline (Harlow, UK)[32] and maintained as described previously. We purchased 5×FAD mice from Jackson Labs (Stock number. 34840-JAX). Because APP/PS1 and 5xFAD mice show sex differences in disease progression, we used only male mice. To examine possible therapeutic effect of N-AS and aspirin in APP/PS1 mice, the N-AS (30 mg kg^−1, Sigma-Aldrich, 01912) was injected daily s.c. for 8 weeks to 7-months-old APP/PS1 mice until the age of 9 months, and aspirin (2 mg kg^−1, Sigma-Aldrich, A5376)[33] was administrated orally to 7-months-old APP/PS1 mice for 8 weeks. Also, to confirm possible therapeutic efficacy of N-AS in 5×FAD, the N-AS (30 mg kg^−1, Sigma-Aldrich, 01912) was injected daily s.c. for 4 weeks to 3-months-old 5×FAD mice until the age of 4 months. Block randomization method was used to allocate the animals to experimental groups. To eliminate the bias, we were blinded in experimental progress such as data collection and data analysis. Mice were housed at temperature of 22 °C and a 12 h day/12 h night cycle with free access to tap water and food pellets. All protocols were approved by the Kyungpook National University Institutional Animal Care and Use Committee.

In the next data set the target is T1, COX2 WT (Homo sapiens, UniProt P35354).
T1 construct: His (N); made in house
T1 sequence (P35354 18-604): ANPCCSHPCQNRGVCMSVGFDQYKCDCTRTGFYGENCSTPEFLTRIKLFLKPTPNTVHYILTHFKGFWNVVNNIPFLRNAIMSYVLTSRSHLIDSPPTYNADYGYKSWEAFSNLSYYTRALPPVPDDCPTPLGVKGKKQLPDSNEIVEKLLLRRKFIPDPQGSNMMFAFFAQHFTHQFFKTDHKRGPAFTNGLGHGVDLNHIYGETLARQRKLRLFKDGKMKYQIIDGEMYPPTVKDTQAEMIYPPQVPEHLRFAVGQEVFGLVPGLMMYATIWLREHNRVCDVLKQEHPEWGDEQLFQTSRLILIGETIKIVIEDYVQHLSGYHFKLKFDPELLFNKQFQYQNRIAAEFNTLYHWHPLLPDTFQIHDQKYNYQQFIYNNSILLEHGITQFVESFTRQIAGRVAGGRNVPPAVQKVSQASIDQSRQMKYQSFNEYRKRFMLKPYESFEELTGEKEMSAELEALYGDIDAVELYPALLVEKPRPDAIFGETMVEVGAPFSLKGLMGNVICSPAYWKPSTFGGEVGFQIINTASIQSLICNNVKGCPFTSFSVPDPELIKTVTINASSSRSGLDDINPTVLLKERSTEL
Nature of the data set: in vitro [14C] acetylation assay of purified COX2. The data set is classed as biochemical. Also on record: C14 radioactivity of COX2, acetylation assay (Fig 1h): unit not given here. How it is done:
Acetylation assays were performed according to previously described procedures with minor modifications. […] To confirm the N-AS-mediated COX2 acetylation, 10 μg COX2 (WT or mutants) was used incubated with [^14C] N-AS (2 μCi, ARC UK Ltd, ARC-1024) at 37 °C for 2 h. [^14C] aspirin (2 μCi, ARC UK Ltd, ARC-0473) was conducted as the positive control. The reactions were terminated by placing the reaction tubes in ice for 5 min. To evaluate in vivo neuronal and microglial COX2 acetylation, 10 μCi [^14C] N-AS was orally administrated to 9-months-old WT and APP/PS1 mice. After 1 h, neuron and microglia were isolated and sonicated in culture media. To immunoprecipitate acetylated COX2, the sample was incubated with COX2 antibody (Abcam, ab15191) at 4 °C for 24 h and precipitated by adding 50 μl of protein-A sepharose (GE Healthcare). Acetylated COX2 proteins bound to the beads were analyzed using a Tri-Carb 3110TR liquid scintillation counter (Perkin-Elmer).

A further data set can be described thus: single-dose plasma PK. It is filed as in vivo, C57BL/6 mice. Particulars: mouse; for AUC(0-inf): read-out: AUCinf (Plasma); for AUC(0-t): read-out: AUClast (Plasma). As for the experimental part:
C57BL/6 mice were administered N-AS (Sigma-Aldrich, 01912) at doses of 1 mg kg^−1 (i.v.) or 10 mg kg^−1 (p.o.). Venous blood samples were collected at 5, 15, and 30 min, and 1, 2, 4, 8, and 24 h postdose. A 30 μl of plasma was separated from whole blood by centrifugation and stored at −80 °C until analysis. Also, brain samples were collected at 1, 2, 4, and 24 h postdose and heart, liver, and kidney samples were collected at 24 h postdose, thoroughly rinsed with physiological saline and weighed. Twenty percentage of tissue homogenates were prepared by homogenizing the tissue samples with four volumes of saline. A 30 μl aliquot of plasma or a 50 μl aliquot of tissue homogenates were deproteinized by addition of 200 μl cold methanol (containing naringenin as internal standard at 20 ng ml^−1) and centrifuged at 15,974×g for 10 min. A 10 μl aliquot of the supernatant was injected into Agilent 6470 LC-MS/MS system. Separation was performed on a Synergy Polar RP column (4 μm particle size, 2.0 mm ×150 mm, Phenomenex) using a mobile phase that consisted of methanol and water (85:15, v/v) with 0.1% formic acid at a flow rate of 0.2 ml min^−1. Quantification was carried out using multiple reaction monitoring (MRM) at m/z 340.3→263.3 for N-AS and m/z 271.1→151.3 for naringenin (internal standard) in negative ionization mode and collision energy of 20 eV. p, and relative oral BA values were calculated as follows: BA% = AUCp.o. normalized by p.o. dose/AUCi.v. normalized by i.v. dose × 100.

[1] abbreviates: C57BL/6, plasma, iv, i.v. 1 mg/kg.
[2] abbreviates: C57BL/6, plasma, po, p.o. 10 mg/kg.

`CCCCCCCCCCCCC/C=C/[C@@H](O)[C@H](CO)NC(C)=O` [N-AS, N-((2S,3R,E)-1,3-Dihydroxyoctadec-4-en-2-yl)acetamide]: in the data set on 5×FAD mice (5xFAD+N-AS, sFig 8f (sheet untitled)), the “synaptophysin (western blot)” value was 4.053 and 6.357 and 5.065 and 6.083 and 5.205 and 5.711. Also, in the data set with 5×FAD mice (5xFAD+N-AS, sFig 8g (sheet untitled)), the “MAP2 (western blot)” value is 2.523 and 3.013 and 3.332 and 2.975 and 2.768 and 3.172. The “PSD95 (western blot)” value in the data set on 5×FAD mice (5xFAD+N-AS, sFig 8i (sheet untitled)) was 1.388 and 2.072 and 1.927 and 1.53 and 1.73 and 1.999. Besides, the “synapsin1 (western blot)” value in the data set with 5×FAD mice (5xFAD+N-AS, sFig 8h (sheet untitled)) was 3.576 and 2.661 and 2.523 and 3.332 and 3.119 and 2.592. The synapse activity result in the data set on 5×FAD mice (5×FAD, N-AS 30 mg kg^-1 daily s.c. 4 weeks) is “similarly improved AD pathology of 5×FAD mice”. Further, on COX2 WT (COX2 WT, replicates, listed as C14 N-AS), the “C14 radioactivity of COX2, acetylation assay (Fig 1h)” value is 278534 and 277829 and 277497 and 262864 and 273318 and 276027. Besides, the “COX2 acetylation level, in words” value at COX2 WT ([14C] N-AS vs aspirin or SphK1-mediated acetylation) is “higher-level acetylation”. For the same compound, in “single-dose plasma PK” (setting [1]), the MRT turned out to be 2.27 ± 0.11 h, the half-life was 3.45 ± 0.16 h, the AUC(0-inf) amounted to 667 ± 28.8 ng·h/mL and the AUC(0-t) amounted to 665 ± 28.6 ng·h/mL. The bioavailability in the data set “single-dose plasma PK” (C57BL/6, plasma, oral, p.o. 10 mg/kg vs i.v. 1 mg/kg, read-out: BA (Bioavailability)) came out at 8.25%. In addition, in “single-dose plasma PK” (setting [2]), the Cmax was determined as 683 ± 141 ng/mL, the MRT turned out to be 3.1 ± 0.14 h, the Tmax came out at 0.25 h and the half-life is 3.68 ± 0.14 h. In addition, in “single-dose plasma PK” (setting [2]), the AUC(0-inf) worked out at 550 ± 71.3 ng·h/mL and the AUC(0-t) was 545 ± 72.1 ng·h/mL. For the same compound, in the data set “single-dose plasma PK” (i.v. 1 mg/kg), the “Co (Plasma)” value was found to be 854.36 ± 128.60 ng/mL. Further, the “bioavailability (BA), in words” value in the data set “single-dose plasma PK” (p.o.) was “low”.
